Laboratory results: patent US20210190799A1, “METHOD FOR DIAGNOSING LIVER DISEASES AND METHOD FOR SCREENING THERAPEUTIC AGENT FOR LIVER DISEASES USING CHANGES IN EXPRESSION OF TM4SF5 PROTEIN” (SEOUL NATIONAL UNIVERSITY R&DB FOUNDATION, priority 2017, published 2021)

Experiments:
STAT3 protein = experiment: Western blotting of separated liver tissue treated with laminin; format: cell-based, mouse; details: FIG. 26B
Method: Particularly, a lysis buffer [50 mM Tris-HCl (pH 7.4), 1% NP40, 0.25% sodium dioxycholate, 150 mM NaCl, 1 mM EDTA], SDS (sodium dodecyl sulfate), Na3O4V and protease inhibitor cocktail (GenDepot) were added to the obtained liver tissue, which was left at 4° C. for 15 minutes to lyse the tissue. The lysate was centrifuged for 30 minutes under the conditions of 13,000 rpm and 4° C. to obtain a supernatant. The proteins present in the supernatant were quantified using BCA reagent (Thermo Scientifics). 4× sample buffer [4 ml of 100% glycerol, 2.4 ml of Tris-HCl (pH 6.8), 0.8 g of SDS, 4 mg of brominated phenol blue, 0.4 ml of β-mercaptoethanol and 3.1 ml of H2O, final volume: 10 ml] was added thereto, which was boiled at 100° C. for 5 minutes. SDS-PAGE was performed, and the proteins were transferred to a nitrocellulose membrane (Whatman). The membrane was pretreated in a solution containing 5% skim milk for 1 hour, and reacted with the antibodies against laminin (Abcam, UK), ACC1 (Cell Signalling, USA), SREBP1 precursor (Santa cruz, USA), mature SREBP1 (Santa cruz, USA), MTP (Santa cruz, USA), PPARα (Santa cruz, USA), pY^706STAT3 (Millipore, USA), STAT3 (Santa cruz, USA), α-tubulin (Sigma, USA) and TM4SF5 (J Clin Invest. 2008 April; 118(4): 1354-66) as the primary antibodies at 4° C. for 15 hours. […]

TM4SF5 gene = experiment: TM4SF5 shRNA in differentiated 3T3-L1 adipocytes (oil red O staining, real-time PCR); format: cell-based, mouse
Method: To confirm whether the fat production was suppressed when the expression of TM4SF5 protein was suppressed in adipocytes, oil red O staining was performed.
First, mouse 3T3-L1 adipocyte progenitor cells were prepared by culturing in DMEM supplemented with 10% NBCS (Gibco, 16010159) and 1% penicillin/streptomycin. The prepared cells were distributed in a 6-well plate at the density of 1×10^5/well.
After 4 days of the distribution, when the progenitor cells were full in the wells, the cells were further cultured for 48 hours. Then, the medium was replaced with the adipocyte differentiation medium (MDI medium containing 10% FBS) supplemented with 1 μM dexamethasone, 0.5 mM IBMX (3-Isobutyl-1-methylxanthine) and 10 μg/m ? of insulin (Sigma, USA). After culturing the cells for 2 days, the medium was replaced with DMEM supplemented with 10% FBS and 10 μg/m ? of insulin. After replacing with the medium, the cells were cultured for 10 days, and then cultured using DMEM supplemented with 10% FBS and 1% penicillin/streptomycin to obtain differentiated adipocytes. The adipocytes were transfected with TM4SF5 shRNA (shTM4SF5, 5′-[…]-3′, SEQ. ID. NO: 35) using lipofectamine 3000.
Whether the expression of the fat-related gene changed when the expression of TM4SF5 gene was suppressed was confirmed by the following method. […]

TM4SF5 protein = experiment: shTM4SF5 in hepatocytes of the liver disease model mouse, Western blotting; format: cell-based; details: FIG. 25
From the text: First, hepatocytes were obtained from the isolated liver tissue as described above. The expressions of TM4SF5 and STAT3 proteins in the obtained hepatocytes were suppressed by transfecting the cells with shTM4SF5 or silencing STAT3 [On-Target plus SMART pool siRNA (Thermo)], and then the expression changes of laminin were confirmed by Western blotting as described above.

Substance | expression level of STAT3 protein (STAT3 protein) | production of fat, oil red O staining (TM4SF5 gene; FIG. 6A) | expressions of Pparγ, CD36, Fasn, Srebp1 and Fabp1 genes (TM4SF5 gene; FIG. 6B) | expression of laminin protein (TM4SF5 protein)
laminin | not changed |  |  | 
shTM4SF5: TM4SF5 shRNA, 5′-CCTGGAATGTGACGCTCTTCTCGCTGCTG-3′, SEQ. ID. NO: 35 (listed as DNA, chemistry not fully specified) |  | inhibited | suppressed | suppressed
